{
  "source": "patent US20120316199A1",
  "about": "“COMPOSITIONS AND METHODS FOR TREATING, CONTROLLING, REDUCING, OR AMELIORATING INFLAMMATORY PAIN” (priority 2011, published 2012)",
  "key": {"[1]": {"tested_on": "MPO activity in iris-ciliary body", "assay": "Myeloperoxidase (MPO) activity in iris-ciliary body, rabbit paracentesis model", "assay_type": "in vivo, Rabbit (New Zealand)", "settings": "for MPO activity in iris-ciliary body: individual samples collected after the second paracentesis, listed as BOL; for MPO activity in iris-ciliary body, Mean: after the second paracentesis, group mean", "procedure": "(§1) Each rabbit was placed in a restraint device and tagged with the alphanumeric code. The formulations were instilled (50 μl) into the conjunctival sac of both eyes 180, 120, 90 and 30 min before the first paracentesis; then 15, 30, 90 min after the first paracentesis. To perform the first paracentesis the animals were anaesthetized by intravenous injection of 5 mg/kg Zoletil® (Virbac; 2.5 mg/kg tiletamine HCl and 2.5 mg/kg zolazepam HCl) and one drop of local anesthetic (Novesina®, Novartis) was administered to the eye. Anterior chamber paracentesis was performed with a 26 G needle attached to a tuberculin syringe; the needle was introduced into the anterior chamber through the cornea, taking care not to damage the tissues. Two hours after the first paracentesis, the animals were sacrificed with 0.4 ml Tanax® (Intervet International B.V.) and the second paracentesis was performed. About 100 μl of aqueous humor were removed at the second paracentesis. Aqueous humor was immediately split in four aliquots and stored at −80° C. until analysis. Then both eyes were enucleated and the iris-ciliary body was carefully excised, placed in polypropylene tubes, and stored at −80° C. until analysis.\nThe activity of MPO was measured as previously described by Williams et al.[5] The iris-ciliary bodies were carefully dried, weighed and immersed in 1 ml of hexa-decyl-trimethyl-ammonium bromide solution. Then, the samples were sonicated for 10 sec on ice by a ultrasound homogenizer (HD 2070, Bandelin electronic), freeze-thawed three times, sonicated for 10 sec and centrifuged at 14,000 g for 10 min to remove cellular debris. An aliquot of the supernatant (40-200 μl) was diluted to 3 ml with the o-dianisidine 2HCl/H2O2 solution. The change in absorbance at 460 nm was continuously monitored for 5 min by a spectrophotometer (UV/Vis Spectrometer Lambda EZ 201; Perkin Elmer). The slope of the line (Δ/min) was determined for each sample and used to calculate the number of units of MPO in the tissue as follows:\nValues were expressed as units of MPO/g of tissue.\n(§2) Pupillary diameter, PGE2, protein, PMN, and MPO were expressed as mean±SEM. Statistical analysis was performed using one way ANOVA followed by a Newman-Keuls post hoc test. Clinical score was expressed as % of eyes and the statistical analysis was performed using Kruskal-Wallis followed by a Dunn post hoc test. P<0.05 was considered statistically significant in both cases. Prism 4 software (GraphPad Software, Inc.) was used for the analysis and graphs."}, "[2]": {"tested_on": "PGE2 in the aqueous humor", "assay": "Prostaglandin E2 (PGE2) measurement in aqueous humor, rabbit paracentesis model", "assay_type": "in vivo, Rabbit (New Zealand)", "settings": "for PGE2 in aqueous humor, statistical significance versus CTR: p<0.05; for PGE2 level in aqueous humor, Mean: second paracentesis, group mean", "procedure": "as §1\nFor the quantitative determination of PGE2 in the aqueous humor we used the PGE2 Immunoassay kit (R&D Systems; Cat. No. KGE004; Lot. No. 240010). Eleven microliters or 16 μl of aqueous humor were diluted to 110 μl or 160 μl with the calibrator diluent solution provided with the kit. One hundred microliters of samples and of standards were load into a 96-well plate and recorded in a plate layout. Samples were treated following the assay procedure described in the kit. A microplate reader (GDV, Italy; model DV 990 B/V6) set at 450 nm (wavelength correction at 540 nm) was used for making the calibration and analyzing the samples.\nas §2"}, "[3]": {"tested_on": "intraocular pressure (IOP)", "assay": "Clinical study after cataract surgery: intraocular pressure (safety)", "assay_type": "in vivo, human", "from_the_text": "There were 8 treatment groups in this study, consisting of three drug doses, vehicle and three dosing frequencies (see also Table 4-1): • Group A: 1% BOL-303242-X ophthalmic suspension, two times per day (BID) • Group B: 2% BOL-303242-X ophthalmic suspension, one time per day (QD) • Group C: 2% BOL-303242-X ophthalmic suspension, BID • Group D: 2% BOL-303242-X ophthalmic suspension, four times per day (QID) • Group E: 3% BOL-303242-X ophthalmic suspension, QD • Group F: 3% BOL-303242-X ophthalmic suspension, BID • Group G: 3% BOL-303242-X ophthalmic suspension, QID • Group H: Vehicle for BOL-303242-X (divided equally into QID, BID, and QD)\nVisit 1 (screening), Visit 2 (cataract surgery), Visit 3 (postoperative Day 1), Visit 4 (postoperative Day 3±1 day), Visit 5 (postoperative Day 8±1 day), Visit 6 (postoperative Day 15±1 day), Visit 7 (postoperative Day 18±1 day). Subject assessments included adverse events (AEs), concomitant medications, ocular symptoms, pinholed Snellen visual acuity (VA), intraocular pressure (IOP), ocular signs (biomicroscopy), fundoscopy, and study drug drop sensation. In addition, subject diaries were collected and reviewed for accuracy and treatment compliance.\nSafety: The safety endpoints in this study were: incidence of AEs, change in IOP, ocular signs (biomicroscopy), Snellen VA, fundoscopy, study drug drop sensation assessment."}, "[4]": {"tested_on": "New Zealand White rabbits", "assay": "Mortality/morbidity in New Zealand White rabbits, topical dosing four times daily", "assay_type": "in vivo", "settings": "for Mortality (rabbits that died or were euthanized between Days 11 and 33): right eye four times daily, Days 1-31", "procedure": "On Days 1-31, animals received daily topical doses of the appropriate test article into the right eye. Animals were dosed four times per day, with doses administered 2 hours apart. Doses were administered using a calibrated 50-μL pipette. The eyelids were held close for 10 seconds immediately following dosing. The time of each dose administration was recorded.\nAnimals determined to be moribund were euthanized with an intravenous injection of commercial euthanasia solution."}, "[5]": {"tested_on": "anterior-segment inflammation after anterior chamber paracentesis", "assay": "Rabbit paracentesis model, overall anti-inflammatory activity", "assay_type": "in vivo, Rabbit (New Zealand)"}, "[6]": {"tested_on": "leukocytes (PMN) in aqueous humor", "assay": "Leukocytes (PMN) measurement in aqueous humor, rabbit paracentesis model", "assay_type": "in vivo, Rabbit (New Zealand)", "settings": "second paracentesis, group mean", "procedure": "as §1\nFor the determination of the number of leukocytes we used a haernocytometer (Improved Neubauer Chamber; Bright-line, Hausser Scientific) and a Polyvar 2 microscope (Reichert-Jung).\nas §2"}, "[7]": {"settings": "Group D, 1 mg/g (0.05 mg/dose) 4 x daily, individual rabbit"}},
  "note": "“And” between values parts separate entries of the source, which are not always exact repeats. Equal entries are not always repeated.",
  "data": [
    {"smiles": "Cc1ccc2c(NC[C@](O)(CC(C)(C)c3cc(F)cc4c3OCC4)C(F)(F)F)cccc2n1", "note": "[BOL-303242-X, mapracorat]", "values": [
      {"measurement": "MPO activity in iris-ciliary body", "setting": "[1]; 0.1% BOL", "result": "1.04 Unit/g and 1.14 Unit/g and 1.06 Unit/g and 1.22 Unit/g and 1.05 Unit/g"},
      {"measurement": "MPO activity in iris-ciliary body, Mean", "setting": "[1]; 0.1% formulation", "result": 0.971, "unit": "MPO Unit/g"},
      {"measurement": "MPO activity in iris-ciliary body", "setting": "[1]; 0.5% BOL", "result": 1.03, "unit": "Unit/g"},
      {"measurement": "MPO activity in iris-ciliary body, Mean", "setting": "[1]; 0.5% formulation", "result": 0.775, "unit": "MPO Unit/g"},
      {"measurement": "MPO activity in iris-ciliary body", "setting": "[1]; 1% BOL", "result": 1.02, "unit": "Unit/g"},
      {"measurement": "MPO activity in iris-ciliary body, Mean", "setting": "[1]; 1% formulation", "result": 0.542, "unit": "MPO Unit/g"},
      {"measurement": "PGE2 in aqueous humor, statistical significance versus CTR", "setting": "[2]; 0.1% formulation", "result": "statistically significant versus CTR"},
      {"measurement": "PGE2 level in aqueous humor, Mean", "setting": "[2]; 0.1% formulation", "result": 1.452, "unit": "ng/mL"},
      {"measurement": "PGE2 in aqueous humor, statistical significance versus CTR", "setting": "[2]; 0.5% formulation", "result": "statistically significant versus CTR"},
      {"measurement": "PGE2 level in aqueous humor, Mean", "setting": "[2]; 0.5% formulation", "result": 1.384, "unit": "ng/mL"},
      {"measurement": "PGE2 level in aqueous humor, Mean", "setting": "[2]; 1% formulation", "result": 2.168, "unit": "ng/mL"},
      {"measurement": "mean IOP values among dose groups", "setting": "[3]; 2% QID and 3% QD groups, Visit 4 (postoperative Day 3) to Visit 7 (postoperative Day 18)", "result": "lowest mean TOP values"},
      {"measurement": "proportion of subjects with mean IOP changes from baseline of ≧5 mmHg or ≧10 mmHg, compared to vehicle", "setting": "[3]; any dose groups at any study visits", "result": "no statistically significant differences"},
      {"measurement": "Mortality (rabbits that died or were euthanized between Days 11 and 33)", "setting": "[4]; 0.05 mg/dose (0.1% dexamethasone suspension or 1 mg/g BOL-303242-X)", "result": "one of ten"},
      {"measurement": "Mortality (rabbits that died or were euthanized between Days 11 and 33)", "setting": "[4]; 5 mg/g suspension ([…])", "result": "two of ten"},
      {"measurement": "Morbidity noted in a surviving rabbit", "setting": "[4]; 10 mg/g (0.5 mg/dose), one surviving rabbit (Group B, No. 3048)", "result": "diarrhea on Day 18"},
      {"measurement": "Mortality (rabbits that died or were euthanized between Days 11 and 33)", "setting": "[4]; 10 mg/g suspension (0.5 mg/dose)", "result": "one of ten"},
      {"measurement": "Mortality rate per dose level", "setting": "[4]; 0.05, 0.25, or 0.5 mg/dose four times daily up to 31 days", "result": "1-2 deaths per 10 rabbits"},
      {"measurement": "Day of Death (day euthanized or found dead)", "setting": "[4]; Group B, 10 mg/g (0.5 mg/dose) 4 x daily, individual rabbit", "result": 11},
      {"measurement": "Day of Death (day euthanized or found dead)", "setting": "[4]; [7]", "result": 29},
      {"measurement": "Recorded Notes on death", "setting": "[4]; [7]", "result": "Found dead."},
      {"measurement": "Activity in the rabbit paracentesis model", "setting": "[5]; 0.1%, 0.5% and 1% topical formulations, preliminary conclusion", "result": "active in this model"},
      {"measurement": "Anti-inflammatory effectiveness compared with steroid and NSAID positive controls", "setting": "[5]; rabbit paracentesis model", "result": "as effective an anti-inflammatory drug as some of the commonly accepted prior-art steroids or NSAID"},
      {"measurement": "PMN numbers in aqueous humor, Mean", "setting": "[6]; 0.1% formulation", "result": 28.333, "unit": "number/μl"},
      {"measurement": "PMN numbers in aqueous humor, Mean", "setting": "[6]; 0.5% formulation", "result": 21.250, "unit": "number/μl"},
      {"measurement": "PMN numbers in aqueous humor, Mean", "setting": "[6]; 1% formulation", "result": 28.750, "unit": "number/μl"}
    ]}
  ]
}
